Data reported in ChEMBL document CHEMBL3988442, “University of Dundee, Small-Polar-MMV Screening Library” (2021).

Target: ClpP1P2 (Mycobacterium tuberculosis (strain ATCC 25618 / H37Rv), UniProt P9WPC3+P9WPC5)
Assay: in vitro assay to detect presence of AMC directly proportional to the activity of ClpP1P2. GHDDI collaboration.
Assay type: functional

SMILES	IC50
c1cnc(Nc2cncc(C3CCCN3)n2)cn1 (stereo not drawn)	> 100 µM
CCNC(=O)[C@@H]1C[C@H](NC(=O)c2cc(=O)[nH]c3ccc(C)cc23)CN1C	> 100 µM
CN(C)c1cncc(-c2ccnc3c2ccn3C)n1	> 100 µM
CC(C)c1nc(CN(C)C2CCN(CCc3ccncc3)C2)no1 (stereo not drawn)	> 100 µM
Cc1ccc2[nH]c(=O)cc(C(=O)N[C@@H]3C[C@@H](CO)N(C)C3)c2c1	> 100 µM
CN1CCc2c(sc3c2C(=O)NC(/C=C/c2ccccc2)N3)C1 (stereo not drawn)	> 100 µM
CCC[C@@H]1CN(c2cncc(C(=O)N3CCOCC3)n2)C[C@H]1N(C)C	> 100 µM
N#Cc1cccnc1N1CCC(C2CCCCCN2C(N)=O)CC1 (stereo not drawn)	> 100 µM
COC(=O)N1CCC(Nc2ccc(Cl)c(C#N)n2)CC1	> 100 µM
Cc1nccn1CCCNc1nccnc1C#N	> 100 µM
CCOc1ccc(Cl)c(C(=O)N(C)C)n1	> 100 µM
COC(=O)COc1cccc(NS(=O)(=O)c2cc(C(=O)O)cs2)c1	> 100 µM
Cc1cnc(CCNc2cccc(CC3CCCNC3)n2)s1 (stereo not drawn)	> 100 µM
CCN(CC)C(=O)CN1CCCC1c1nc(C)c2c(n1)N(C)C(=O)CC2 (stereo not drawn)	> 100 µM
CN(C)c1ncc(-c2cc(C(=O)N3CCCC3)n(CC3CC3)c2)cn1	> 100 µM
CCCn1[nH]cc/c1=N\C(=O)CN1CCc2cnc(C(C)C)nc2C1	> 100 µM
O=C(NCc1cccnc1)c1ccc2nccn2c1	> 100 µM
CCN(CC(C)C#N)C(=O)CNc1cc(Cl)ccc1C(N)=O (stereo not drawn)	> 100 µM
CCc1n[nH]c(C2CN(CCCS(C)(=O)=O)CCO2)n1 (stereo not drawn)	> 100 µM
CNC(=O)CNC(=O)c1ccc(-c2scnc2C)nc1	> 100 µM
CCCNC(=O)c1ccc(-c2ccco2)[nH]c1=O	> 100 µM
CN(C)C1CCN(c2cc(-c3ccccc3)nc3ccnn23)C1 (stereo not drawn)	> 100 µM
Cc1cc(CN2CCN(C(=O)c3sccc3C3CC3)CC2)no1	> 100 µM
Cc1cn2c(=O)c(-c3ccnc(N[C@@H](C)CO)n3)cnc2s1	> 100 µM
c1ccc(CCCN2CCOC(Cn3cccn3)C2)cc1 (stereo not drawn)	> 100 µM

SMILES	IC50
CC(C)c1ncc(-c2cc(C3CCC3)nc(N)c2C#N)cn1	> 100 µM
CC1CN(C(=O)CN(Cc2ccco2)Cc2cccs2)CCO1 (stereo not drawn)	> 100 µM
CS(=O)(=O)NC1CCN(C(=O)NCc2ccccn2)CC1	> 100 µM
CN1CCC(NC(=O)c2cc(Br)cc(Cl)c2O)C1=O (stereo not drawn)	> 100 µM
Cc1ccc(-c2nc(C3CCN(C(=O)c4cnn(C)c4)CC3)no2)cn1	> 100 µM
CCN(CC)S(=O)(=O)c1cc2c3c(c1)c(C)cc(=O)n3CC2	> 100 µM
Cc1nc(N2C[C@H]3CC[C@@H](C2)N3)nc2cc(S(C)(=O)=O)ccc12	> 100 µM
CC(=O)N1CCC(c2cnc(NC3CCOCC3)cn2)CC1	> 100 µM
CCOc1ccc2[nH]c(=O)c(CN3CCC(n4cnnc4)CC3)cc2c1	> 100 µM
N#Cc1ccc(OC[C@]23COC[C@H]2CN(Cc2ccoc2)C3)nc1	> 100 µM
Cc1noc(CN(CCc2cccs2)Cc2cccc(C#N)c2)n1	> 100 µM
Cn1c(CN2CCCC(Cn3cncn3)C2)nc2ccccc21 (stereo not drawn)	> 100 µM
Nc1nc(CN2CCOC(Cn3cccn3)C2)nc2ccccc12 (stereo not drawn)	> 100 µM
CNc1cnc(CC2COCCN(Cc3cccc(C)n3)C2)cn1 (stereo not drawn)	> 100 µM
CC1CCN(C(=O)C2CCN(c3ccc(Cl)cc3C#N)CC2)CC1	> 100 µM
Cn1ccc2c(-c3nccc(N)n3)ccnc21	> 100 µM
Nc1nccc(-c2cccc3ccnn23)n1	> 100 µM
Cc1ccc(C#N)c(N2CCC3(CCC(=O)N(CC(N)=O)C3)CC2)n1	> 100 µM
Cc1cnn(CC2CN(Cc3nc4ccccc4o3)CCO2)c1 (stereo not drawn)	> 100 µM
CCCn1[nH]cc/c1=N\C(=O)CN1CCn2c(nnc2C2CC2)C1	> 100 µM
CN(C)S(=O)(=O)N1CC[C@]2(O)CCN(c3cc(C#N)ccn3)C[C@@H]2C1	> 100 µM
Cc1nc(CN2CCC(O)(c3ccccc3F)CC2)c2ccccn12	> 100 µM
CCC(C)NC(=O)c1ccc(-c2ccco2)[nH]c1=O (stereo not drawn)	> 100 µM
CN(C)CC1CN(c2cnc3ccccc3n2)CCO1 (stereo not drawn)	> 100 µM
O=C1C[C@H]2CC[C@@H](CN1)N2c1cc(-c2ccccc2F)nc2ccnn12	> 100 µM

SMILES	IC50
COc1cc2c(cc1CCC(=O)O)CCC2	> 100 µM
COc1ncc(NCc2cc(C#N)cs2)cc1C(N)=O	> 100 µM
CC(c1cccnc1)N(C)Cc1cc2cc3c(cc2[nH]c1=O)OCO3 (stereo not drawn)	> 100 µM
CC1CN(C(=O)CN(Cc2ccccc2)C2CC2)CCO1 (stereo not drawn)	> 100 µM
COc1cccc(-c2cc(NCCN(C)C)nc3[nH]ccc23)n1	> 100 µM
COc1ccc2c(c1)C(=O)N(C)C1(CCN(C(=O)OC(C)(C)C)CC1)N2	> 100 µM
CCOc1ccc2[nH]c(=O)c(CN3CCCC(CO)(CO)C3)cc2c1	> 100 µM
Cn1cc(CN2CCCN(C(=O)c3cn4ccccc4n3)CC2)cn1	> 100 µM
Cc1nn(C)c(C)c1C(=O)NCc1cc(N(C)C)nc2ccccc12	> 100 µM
CCS(=O)(=O)N1CCc2cc(C(=O)NC)c(NCC3CC3)nc2CC1	> 100 µM
CN1CCCN(C(=O)c2cc(-c3cc[nH]n3)n3ccccc23)CC1	> 100 µM
CCN(C(=O)CNc1cc(C)c(F)cc1C(N)=O)C1CC1	> 100 µM
O=C1NC2(CCN(CC(=O)N3CCOCC3)CC2)Nc2ccc(Br)cc21	> 100 µM
Cc1cc2nc(-c3ccccc3)cc(NCC3CCS(=O)(=O)C3)n2n1 (stereo not drawn)	> 100 µM
CN(C)CCC1CN(C(=O)c2cccc3c2OCC3)CCO1 (stereo not drawn)	> 100 µM
Cc1cc(C)n(-c2cncc(NCCNC(=O)CC3CCCC3)n2)n1	> 100 µM
O=C1CCCN1Cc1nnc2n1CCCN(C(=O)c1ccco1)C2	> 100 µM
CCN(CC)C(=O)c1ccc(CNc2cncc(-n3cccn3)n2)cc1	> 100 µM
COc1ccc(C2Nc3ccccc3C3=NCCCN32)cc1OC (stereo not drawn)	> 100 µM
CS(=O)(=O)CC1(CNc2cc(C#N)c3cc(Cl)ccc3n2)CC1	> 100 µM
CC(C)N1CC[C@@](C)(O)[C@H](n2ccc(=O)[nH]c2=O)C1	> 100 µM
O=C(NCc1nc2cc(F)ccc2[nH]1)c1ccc[nH]1	> 100 µM
CCn1ccnc1CN1CCN(CC(O)c2cccc(F)c2)CC1 (stereo not drawn)	> 100 µM
CC(=O)N(Cc1ncc(C)o1)C1CCN(Cc2cc(C)on2)C1 (stereo not drawn)	> 100 µM
Cc1cc(C)n(CC2CCCN2C(=O)c2ccnc(N(C)C)c2)n1 (stereo not drawn)	> 100 µM

SMILES	IC50
Cc1nc(N2CCCC2C(=O)NCc2ccsc2)nc2ccccc12 (stereo not drawn)	> 100 µM
Cn1cnc2c1CCN(Cc1csc(-c3ccsc3)n1)C2	> 100 µM
COc1ccc2cc(CN(C)CCN3CCCCC3=O)c(=O)[nH]c2c1	> 100 µM
CCN(CC)C(=O)CCNc1cncc(-n2nc(C)cc2C)n1	> 100 µM
CC(C)Cc1cc(-c2cc(-c3ccc[nH]3)nc(N)c2C#N)n[nH]1	> 100 µM
COc1ccc(-c2nnc(CNCCn3cc(C)cn3)o2)cc1	> 100 µM
CCOC(=O)C1(Cc2ccc(Cl)cc2)CCN(Cc2ncc[nH]2)CC1	> 100 µM
COc1ccc2c(c1)C(=O)N(C)C1(CCN(CC=C(C)C)CC1)N2	> 100 µM
CCSc1ncc(-c2cc(C3CC3)nc(N)c2C#N)cn1	> 100 µM
O=C(c1nc(=O)[nH]c2ccccc12)N1CCCC2(CCNC2)C1 (stereo not drawn)	> 100 µM
O=C1CN(c2cc(-c3ccccc3F)nc3ccnn23)CCCN1	> 100 µM
O=C(NCC(F)(F)F)c1ccc(-c2ccco2)[nH]c1=O	> 100 µM
CN(C)C(=O)CN1C[C@@H]2CC[C@H](C1)N(Cc1ccc(Cl)cc1Cl)C2	> 100 µM
Cc1csc2ncc(-c3ccnc(N4CCCN(C)CC4)n3)c(=O)n12	> 100 µM
Cc1ncc2c(n1)CN(CC(=O)Nc1ccc(Cl)cn1)CC2	> 100 µM
CCc1nc(C2CCCN2C(=O)CCCn2cncn2)no1 (stereo not drawn)	> 100 µM
COc1ncc(NCc2ccc(F)cc2)cc1C(N)=O	> 100 µM
CC(C)n1ccc(-c2cc(C(=O)N3CCN(C)CC3)c3ccccn23)n1	> 100 µM
CCN(CC)c1nc2sc(C(=O)N3CCNC(=O)C3)cc2s1	> 100 µM
CC(C)c1nnc2n1CCN(Cc1csc(CC(=O)N(C)C)n1)C2	> 100 µM
N#Cc1cccc(N2CCCC3(CCC(=O)N(C4CCCC4)C3)C2)n1 (stereo not drawn)	> 100 µM
CCn1cnnc1CNC(=O)N1CCN(Cc2ccco2)CC1	> 100 µM
Cc1sc2c(C3CCCNC3)nc(Nc3cccc(F)c3)n2c1C (stereo not drawn)	> 100 µM
CCCc1nc(CNCC2CCCN2c2cccnn2)no1 (stereo not drawn)	> 100 µM
Cc1ncsc1CCC(=O)NC1CCN(c2ncccc2C#N)CC1	> 100 µM

SMILES	IC50
CC(=O)N1CCc2[nH]cnc2C1C1=CCCN(CCn2cccc2)C1 (stereo not drawn)	> 100 µM
O=C(c1cc(-c2cccnc2)[nH]n1)N1CCCC(c2cnccn2)C1 (stereo not drawn)	> 100 µM
c1ccc(CN2CCc3ncnc(-c4ccoc4)c3CC2)nc1	> 100 µM
CC(C)Nc1ccnc(-c2ccnc3c2ccn3C)n1	> 100 µM
CC(=O)N1CCCCCC1C1CCN(c2ncccc2C#N)CC1 (stereo not drawn)	> 100 µM
CNC(=O)C1CCCN1c1nc(C)c2ccccc2n1 (stereo not drawn)	> 100 µM
Cn1cnc(-c2nc(C(=O)NCCN3CCCC3)c3ccccn23)c1	> 100 µM
Cc1cccc2c1NC1(CCOCC1)NC2=O	> 100 µM
CC(C)=CCCC1(C)C=Cc2c(cc(C)n(CCC(=O)O)c2=O)O1 (stereo not drawn)	> 100 µM
Cn1ncc(N2CCOC(CCNC(=O)CO)C2)cc1=O (stereo not drawn)	> 100 µM
Cc1nc(-c2ccsc2)ccc1C(=O)NCCCN1CCOCC1	> 100 µM
O=C(NCCCn1cncn1)c1ccc(-c2ccco2)[nH]c1=O	> 100 µM
COc1cccc2ccc(N3CCC(O)(C(=O)O)CC3)nc12	> 100 µM
CCN1CCCC1CNCc1cc2cc(OC)c(OC)cc2[nH]c1=O (stereo not drawn)	> 100 µM
O=S1(=O)CCC(CNc2cc(-c3ccccc3)nc3ccnn23)C1 (stereo not drawn)	> 100 µM
COCc1nc(C(=O)N2CCCC(n3nc(C)cc3C)C2)cs1 (stereo not drawn)	> 100 µM
COc1cc(CN2CCCCCC2c2cccs2)cc(OC)c1O (stereo not drawn)	16.8 µM
COCCNc1ncc(-c2cccc(OC)c2)c(-c2nccn2C)n1	> 100 µM
CCC(CNC(=O)Nc1cnn(CC)c1)N1CCc2ccccc2C1 (stereo not drawn)	> 100 µM
Cc1ccc(S(=O)(=O)N2CCOc3ccccc32)cc1C(N)=O	> 100 µM
Cc1cccc(NC(=O)c2ccc(OCc3nnnn3C)cc2)n1	> 100 µM
Nc1nccnc1C(=O)NC1CCN(Cc2ccccc2)C1 (stereo not drawn)	> 100 µM
CC(Cn1cccn1)NC(=O)NCc1ccoc1 (stereo not drawn)	> 100 µM
